Values quoted from earlier work in patent US20070003591A1, “USE OF A PROPOLIS AS A COATING MATERIAL FOR MEDICAL IMPLANTS” (priority 2005, published 2007).

Experiments:
[1] = test system: transcription factor FKB in human breast cancer cells of the type MCF-7; conditions: MCF-7 cells; Watabe et al. 2004
[2] = test system: transcription factor FKB in T cells; conditions: Márquez et al. 2004

Structure (SMILES): O=C(/C=C/c1ccc(O)c(O)c1)OCCc1ccccc1 [caffeic acid phenylethyl ester]
- inhibitor of the transcription factor FKB [1]: inhibitor
- inhibitor of the transcription factor FKB [2]: inhibitor
